Results: US7507739B2, “6-[(substituted)phenyl]triazolopyrimidines as anticancer agents” (Wyeth, priority 2003, dated 2009)

Assays:
HeLa cells = test: Cell cycle analysis with HeLa cells; format: cell-based, human; conditions: 18 hr
Experimental: HeLa cells are harvested by trypsinization, washed, counted and distributed to wells of 12-well plates at 125,000 cells per well in 2 mL medium. Cells are cultured overnight. […] Cells are continued in culture for 18 hr after compound addition, then cells in each well are harvested (taking care to recover both adherent and non-adherent cells) and processed using the CycleTEST PLUS kit (Becton Dickinson Immunocytometry Systems, San Jose, Calif.). Flow cytometry is done with a FACSort instrument (Becton Dickinson).
This procedure measures the percentages of cells in a population that are in the G1, S, and G2/M phases of the cell cycle. It utilizes staining of cell nuclei with propidium iodide and analysis by flow cytometry.

pure tubulin = test: Tubulin polymerization test with pure tubulin without GTP; format: biochemical, bovine; conditions: no GTP
Experimental: Medium is RPMI-1640 with L-glutamine, supplemented with 10% heat-inactivated fetal calf serum, 100 units/ml penicillin, and 100 μg/ml streptomycin (Gibco, Grand Island, N.Y.). Microtubule-associated protein (MAP)-rich tubulin, containing about 70% tubulin and 30% MAPs (#ML113), and highly purified tubulin (>99% pure, #TL238), both from bovine brain, are obtained from Cytoskeleton, Inc., Denver, Colo. PEM buffer (80 mM piperazine-N,N′-bis[2-ethanesulfonic acid], pH 6.9, 1 mM ethylene glycol-bis(β-aminoethyl ether)-N,N,N′,N′-tetraacetic acid, 1 mM magnesium chloride) and guanosine 5′-triphosphate (GTP) are also obtained from Cytoskeleton. [3H]paclitaxel, specific activity 14.7 Ci/mmol, is purchased from Moravek Biochemicals (Brea, Calif.). [^3H]vinblastine, specific activity 9.60 Ci/mmol and MicroSpin G-50 columns are obtained from Amersham Biosciences (Piscataway, N.J.). […] Other reagents are obtained from Sigma (St. Louis, Mo.).
Two variations of this procedure are done, one using MAP-rich tubulin and one using pure tubulin.
The procedure with pure tubulin is similar except for the following changes. […] The supernatant after centrifugation is dispensed to a 96-well plate already containing compounds. Each compound is tested in duplicate at six serial 3-fold dilutions starting at 24.3 μM. The plate reader is thermostated at 35°.

COLO 205 cells = test: MTS cytotoxicity test with COLO 205 cells; format: cell-based, human; conditions: Homo sapiens, COLO 205, 72 h, 3 days
Experimental: The assay, which is sold in kit form by Promega (Madison, Wis.; CellTiter 96 AQueous Non-Radioactive Cell Proliferation Assay), is based on the conversion by viable cells, but not by dead cells, of the tetrazolium salt, MTS (3-(4,5-dimethylthiazol-2-yl)-5-(3-carboxymethoxyphenyl)-2-(4-sulphophenyl)-2H-tetrazolium, inner salt), into a water-soluble colored formazan which is detected by spectrophotometry. Compounds are tested at nine concentrations, in order to determine IC50 values. For the test procedure, cells are harvested by trypsinization (or, in the case of non-adherent cells, by simple resuspension), washed, counted and distributed to wells of 96-well flat-bottom microtiter plates at 1000 cells per well in 200 μL of medium. In addition, one row of wells on a separate plate received cells as above (“time 0” plate). All plates are incubated at 37° in humidified 5% CO2 in air for about 24 hr.
On day 2, compounds for test are diluted and added to wells. Compounds are dissolved in DMSO at 10 mg/mL. For each compound, nine serial 2-fold dilutions are prepared in DMSO. Ten μL of each dilution in DMSO is transferred to 100 μL of medium, mixed well, and then 5 μL of this dilution is transferred in quadruplicate to wells containing cells. The final high concentration of each compound is typically 5 μM. Plates are returned to the incubator for three days. At the time of drug addition to the experimental plates, the MTS assay is run on the “time 0” plate. This produced the “time 0 MTS value” which is related to the number of viable cells per well at the time of drug addition.
After three days of culture with test compounds (day 5 overall), the MTS assay is done on all wells of the experimental plates. The absorbance values of the quadruplicate sample wells are averaged and divided by the average of the “time 0” values. The average of control wells without drug, divided by the average “time 0” value, gave the maximal relative increase in MTS color yield due to cell growth during the final three days of culture. The average of control wells with high drug concentration, divided by the “time 0” value, gave the minimal relative color yield for cells that are completely killed. The nine values for each compound are plotted against concentration, and the concentration that produced a relative color yield half way between the maximum and minimum is taken as the IC50 value.
COLO 205 is a human colon carcinoma cell line that is used for comparative testing of the examples of this invention and several reference compounds. This line is sensitive to paclitaxel and vincristine.

SMILES: COc1cc2c(c(OC)c1OC)-c1ccc(OC)c(=O)cc1[C@@H](NC(C)=O)CC2 [Colchicine, reference compound]
- Percent in Cell Cycle Phase >4N (HeLa cells; 5 nM): 2%
- Percent in Cell Cycle Phase Apop (HeLa cells; 5 nM): 6%
- Percent in Cell Cycle Phase G1 (HeLa cells; 5 nM): 60%
- Percent in Cell Cycle Phase G2/M (HeLa cells; 5 nM): 16%
- Percent in Cell Cycle Phase S (HeLa cells; 5 nM): 17%
- Percent in Cell Cycle Phase >4N (HeLa cells; 10 nM): 2%
- Percent in Cell Cycle Phase Apop (HeLa cells; 10 nM): 7%
- Percent in Cell Cycle Phase G1 (HeLa cells; 10 nM): 59%
- Percent in Cell Cycle Phase S (HeLa cells; 10 nM): 16%
- Percent in Cell Cycle Phase >4N (HeLa cells; 15 nM): 2%
- Percent in Cell Cycle Phase Apop (HeLa cells; 15 nM): 9%
- Percent in Cell Cycle Phase G1 (HeLa cells; 15 nM): 50%
- Percent in Cell Cycle Phase G2/M (HeLa cells; 15 nM): 23%
- Percent in Cell Cycle Phase S (HeLa cells; 15 nM): 17%
- Percent in Cell Cycle Phase >4N (HeLa cells; 17.5 nM): 2%
- Percent in Cell Cycle Phase Apop (HeLa cells; 17.5 nM): 9%
- Percent in Cell Cycle Phase G1 (HeLa cells; 17.5 nM): 51%
- Percent in Cell Cycle Phase G2/M (HeLa cells; 17.5 nM): 21%
- Percent in Cell Cycle Phase >4N (HeLa cells; 20 nM): 2%
- Percent in Cell Cycle Phase Apop (HeLa cells; 20 nM): 13%
- Percent in Cell Cycle Phase G1 (HeLa cells; 20 nM): 40%
- Percent in Cell Cycle Phase G2/M (HeLa cells; 20 nM): 28%
- Percent in Cell Cycle Phase >4N (HeLa cells; 25 nM): 3%
- Percent in Cell Cycle Phase Apop (HeLa cells; 25 nM): 14%
- Percent in Cell Cycle Phase G1 (HeLa cells; 25 nM): 36%
- Percent in Cell Cycle Phase G2/M (HeLa cells; 25 nM): 27%
- Percent in Cell Cycle Phase S (HeLa cells; 25 nM): 20%
- Percent in Cell Cycle Phase >4N (HeLa cells; 30 nM): 3%
- Percent in Cell Cycle Phase Apop (HeLa cells; 30 nM): 14%
- Percent in Cell Cycle Phase G1 (HeLa cells; 30 nM): 27%
- Percent in Cell Cycle Phase G2/M (HeLa cells; 30 nM): 36%
- Percent in Cell Cycle Phase S (HeLa cells; 30 nM): 20%
- Percent in Cell Cycle Phase >4N (HeLa cells; 40 nM): 4%
- Percent in Cell Cycle Phase Apop (HeLa cells; 40 nM): 11%
- Percent in Cell Cycle Phase G1 (HeLa cells; 40 nM): 16%
- Percent in Cell Cycle Phase G2/M (HeLa cells; 40 nM): 48%
- Percent in Cell Cycle Phase S (HeLa cells; 40 nM): 22%
- Percent in Cell Cycle Phase >4N (HeLa cells; 50 nM): 4%
- Percent in Cell Cycle Phase Apop (HeLa cells; 50 nM): 11%
- Percent in Cell Cycle Phase G1 (HeLa cells; 50 nM): 11%
- Percent in Cell Cycle Phase G2/M (HeLa cells; 50 nM): 56%
- Percent in Cell Cycle Phase >4N (HeLa cells; 100 nM): 3%
- Percent in Cell Cycle Phase Apop (HeLa cells; 100 nM): 15%
- Percent in Cell Cycle Phase G1 (HeLa cells; 100 nM): 11%
- Percent in Cell Cycle Phase G2/M (HeLa cells; 100 nM): 55%
- Percent in Cell Cycle Phase S (HeLa cells; 100 nM): 16%

SMILES: CC(=O)O[C@@]12CO[C@@H]1C[C@H](O)[C@@]1(C)C(=O)[C@H](O)C3=C(C)[C@@H](OC(=O)[C@H](O)[C@@H](NC(=O)OC(C)(C)C)c4ccccc4)C[C@@](O)([C@@H](OC(=O)c4ccccc4)[C@H]21)C3(C)C [Docetaxel, reference compound]
- absorbance increase, polymerization of pure tubulin (pure tubulin; 0.1 μM): small increase in absorbance
- A340 at 0 min (pure tubulin; 24.3 μM): 0
- A340 at 5 min (pure tubulin; 24.3 μM): 0.20
- A340 at 10 min (pure tubulin; 24.3 μM): 0.20
- A340 at 15 min (pure tubulin; 24.3 μM): 0.20
- A340 at 20 min (pure tubulin; 24.3 μM): 0.20
- absorbance increase, polymerization of pure tubulin (pure tubulin; 24.3 μM, first 5 min): rapid increase in absorbance
- Percent in Cell Cycle Phase >4N (HeLa cells; 0.25 nM): 2%
- Percent in Cell Cycle Phase Apop (HeLa cells; 0.25 nM): 8%
- Percent in Cell Cycle Phase G1 (HeLa cells; 0.25 nM): 58%
- Percent in Cell Cycle Phase G2/M (HeLa cells; 0.25 nM): 16%
- Percent in Cell Cycle Phase S (HeLa cells; 0.25 nM): 17%
- Percent in Cell Cycle Phase >4N (HeLa cells; 0.5 nM): 2%
- Percent in Cell Cycle Phase Apop (HeLa cells; 0.5 nM): 19%
- Percent in Cell Cycle Phase G1 (HeLa cells; 0.5 nM): 48%
- Percent in Cell Cycle Phase G2/M (HeLa cells; 0.5 nM): 14%
- Percent in Cell Cycle Phase S (HeLa cells; 0.5 nM): 18%
- Percent in Cell Cycle Phase >4N (HeLa cells; 1 nM): 2%
- Percent in Cell Cycle Phase Apop (HeLa cells; 1 nM): 35%
- Percent in Cell Cycle Phase G1 (HeLa cells; 1 nM): 35%
- Percent in Cell Cycle Phase G2/M (HeLa cells; 1 nM): 14%
- Percent in Cell Cycle Phase S (HeLa cells; 1 nM): 15%
- Percent in Cell Cycle Phase >4N (HeLa cells; 2 nM): 2%
- Percent in Cell Cycle Phase Apop (HeLa cells; 2 nM): 48%
- Percent in Cell Cycle Phase G1 (HeLa cells; 2 nM): 19%
- Percent in Cell Cycle Phase G2/M (HeLa cells; 2 nM): 14%
- Percent in Cell Cycle Phase S (HeLa cells; 2 nM): 18%
- Percent in Cell Cycle Phase >4N (HeLa cells; 3 nM): 2%
- Percent in Cell Cycle Phase Apop (HeLa cells; 3 nM): 52%
- Percent in Cell Cycle Phase G1 (HeLa cells; 3 nM): 15%
- Percent in Cell Cycle Phase G2/M (HeLa cells; 3 nM): 14%
- Percent in Cell Cycle Phase S (HeLa cells; 3 nM): 17%
- Percent in Cell Cycle Phase >4N (HeLa cells; 4 nM): 2%
- Percent in Cell Cycle Phase Apop (HeLa cells; 4 nM): 49%
- Percent in Cell Cycle Phase G1 (HeLa cells; 4 nM): 12%
- Percent in Cell Cycle Phase G2/M (HeLa cells; 4 nM): 22%
- Percent in Cell Cycle Phase S (HeLa cells; 4 nM): 16%
- Percent in Cell Cycle Phase >4N (HeLa cells; 5 nM): 3%
- Percent in Cell Cycle Phase Apop (HeLa cells; 5 nM): 42%
- Percent in Cell Cycle Phase G1 (HeLa cells; 5 nM): 9%
- Percent in Cell Cycle Phase G2/M (HeLa cells; 5 nM): 31%
- Percent in Cell Cycle Phase S (HeLa cells; 5 nM): 17%
- Percent in Cell Cycle Phase >4N (HeLa cells; 6 nM): 4%
- Percent in Cell Cycle Phase Apop (HeLa cells; 6 nM): 37%
- Percent in Cell Cycle Phase G1 (HeLa cells; 6 nM): 10%
- Percent in Cell Cycle Phase G2/M (HeLa cells; 6 nM): 33%
- Percent in Cell Cycle Phase S (HeLa cells; 6 nM): 17%
- Percent in Cell Cycle Phase >4N (HeLa cells; 8 nM): 4%
- Percent in Cell Cycle Phase Apop (HeLa cells; 8 nM): 29%
- Percent in Cell Cycle Phase G1 (HeLa cells; 8 nM): 7%
- Percent in Cell Cycle Phase G2/M (HeLa cells; 8 nM): 48%
- Percent in Cell Cycle Phase S (HeLa cells; 8 nM): 11%
- Percent in Cell Cycle Phase >4N (HeLa cells; 10 nM): 4%
- Percent in Cell Cycle Phase Apop (HeLa cells; 10 nM): 35%
- Percent in Cell Cycle Phase G1 (HeLa cells; 10 nM): 9%
- Percent in Cell Cycle Phase G2/M (HeLa cells; 10 nM): 37%
- Percent in Cell Cycle Phase S (HeLa cells; 10 nM): 16%
- Percent in Cell Cycle Phase >4N (HeLa cells; 20 nM): 3%
- Percent in Cell Cycle Phase Apop (HeLa cells; 20 nM): 38%
- Percent in Cell Cycle Phase G1 (HeLa cells; 20 nM): 8%
- Percent in Cell Cycle Phase G2/M (HeLa cells; 20 nM): 40%
- Percent in Cell Cycle Phase S (HeLa cells; 20 nM): 12%

SMILES: C[C@H](Nc1c(-c2c(F)cc(OCCCN)cc2F)c(Cl)nc2ncnn12)C(F)(F)F [Example 5, 6-[4-(3-Aminopropoxy)-2,6-difluorophenyl]-5-chloro-N-[(1S)-2,2,2-trifluoro-1-methylethyl][1,2,4]triazolo[1,5-a]pyrimidin-7-amine]
- IC50 (COLO 205 cells): 0.452 µM

SMILES: C[C@H](Nc1c(-c2c(F)cc(OCCCN3CCOCC3)cc2F)c(Cl)nc2ncnn12)C(F)(F)F [Example 11, 5-Chloro-6-[2,6-difluoro-4-(3-morpholin-4-ylpropoxy)phenyl]-N-[(1S)-2,2,2-trifluoro-1-methylethyl][1,2,4]triazolo[1,5-a]pyrimidin-7-amine]
- IC50 (COLO 205 cells): 0.089 µM
